System: MDAMB231
Test: SRB assay, IMT combined with inhibitor
Format: cell-based
Settings: MDAMB231 (breast); concentration series of the labelled inhibitor + fixed concentration of IMT (3S)-1-[(2R)-2-[4-(2-chloro-4-fluoro-phenyl)-2-oxo-chromen-7-yl]oxypropanoyl]piperidine-3-carboxylic acid; negative=synergistic, positive=antagonistic
Description: Solforhodamine B assay is carried out as described in Voigt W. (2005) Sulforhodamine B Assay and Chemosensitivity. (Methods in Molecular Medicine™, vol 110. Humana Press. https://doi.org/10.1385/1-59259-869-2:039).
The determination of changes in cellular biomass was based on the Solforhodamine B assay format, carried out as described in Voigt W. (2005) Sulforhodamine B Assay and Chemosensitivity. (Methods in Molecular Medicine™, vol 110. Humana Press. https://doi.org/10.1385/1-59259-869-2:039).
All in vitro cell culture experiments were carried out under near physiological glucose concentrations (5 mM) in at least two independent replicates.
To establish the method described, combinations of (3S)-1-[(2R)-2-[4-(2-chloro-4-fluoro-phenyl)-2-oxo-chromen-7-yl]oxypropanoyl]piperidine-3-carboxylic acid and various PARPi were tested with regard to their effect on the cell growth of 33 tumour cell lines from different tissues, in the SRB and CTG assay format. The assay methods and protocols in cell culture and measurement followed the procedure as described in Example 1). […] This initial study was followed by validation experiments in a matrix format and in the CTG assay, as described for Example 1) (Table 6.)

In the case of `O=C(c1cc(Cc2n[nH]c(=O)c3ccccc23)ccc1F)N1CCN(C(=O)C2CC2)CC1` [Olaparib], the “difference between the calculated combinatorial index (BLISS) and the observed combinatorial effect” value is reported as −0.0488.

Source: patent publication US20240252454A1, “COMPOSITION COMPRISING AN INHIBITOR OF MITOCHONDRIAL TRANSCRIPTION” (LEAD DISCOVERY CENTER GMBH, priority 2021, published 2024)
